The target in the assay is T1, recombinant guanylate cyclase reporter cell line (Rattus norvegicus, UniProt P19686+P20595).
T1 construct: expressed in transfected cells
T1 sequence (P19686 1-690): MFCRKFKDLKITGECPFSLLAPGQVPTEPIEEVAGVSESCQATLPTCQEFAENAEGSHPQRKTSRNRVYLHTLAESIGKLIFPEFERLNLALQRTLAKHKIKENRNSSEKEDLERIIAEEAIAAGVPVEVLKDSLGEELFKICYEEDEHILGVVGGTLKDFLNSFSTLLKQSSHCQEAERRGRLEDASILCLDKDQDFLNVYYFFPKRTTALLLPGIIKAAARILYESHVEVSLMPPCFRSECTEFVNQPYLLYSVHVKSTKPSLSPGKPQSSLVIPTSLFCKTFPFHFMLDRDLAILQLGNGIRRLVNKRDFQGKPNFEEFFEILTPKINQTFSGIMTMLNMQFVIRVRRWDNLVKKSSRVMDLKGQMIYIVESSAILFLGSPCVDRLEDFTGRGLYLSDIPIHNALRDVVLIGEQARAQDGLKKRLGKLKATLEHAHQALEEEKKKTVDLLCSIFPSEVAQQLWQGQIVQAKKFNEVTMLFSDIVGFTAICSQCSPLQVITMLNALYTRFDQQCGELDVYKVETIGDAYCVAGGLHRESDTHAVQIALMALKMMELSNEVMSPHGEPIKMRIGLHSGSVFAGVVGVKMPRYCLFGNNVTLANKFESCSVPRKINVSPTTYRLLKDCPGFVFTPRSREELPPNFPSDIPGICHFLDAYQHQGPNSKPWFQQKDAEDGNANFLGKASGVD
T1 sequence (P20595 1-619): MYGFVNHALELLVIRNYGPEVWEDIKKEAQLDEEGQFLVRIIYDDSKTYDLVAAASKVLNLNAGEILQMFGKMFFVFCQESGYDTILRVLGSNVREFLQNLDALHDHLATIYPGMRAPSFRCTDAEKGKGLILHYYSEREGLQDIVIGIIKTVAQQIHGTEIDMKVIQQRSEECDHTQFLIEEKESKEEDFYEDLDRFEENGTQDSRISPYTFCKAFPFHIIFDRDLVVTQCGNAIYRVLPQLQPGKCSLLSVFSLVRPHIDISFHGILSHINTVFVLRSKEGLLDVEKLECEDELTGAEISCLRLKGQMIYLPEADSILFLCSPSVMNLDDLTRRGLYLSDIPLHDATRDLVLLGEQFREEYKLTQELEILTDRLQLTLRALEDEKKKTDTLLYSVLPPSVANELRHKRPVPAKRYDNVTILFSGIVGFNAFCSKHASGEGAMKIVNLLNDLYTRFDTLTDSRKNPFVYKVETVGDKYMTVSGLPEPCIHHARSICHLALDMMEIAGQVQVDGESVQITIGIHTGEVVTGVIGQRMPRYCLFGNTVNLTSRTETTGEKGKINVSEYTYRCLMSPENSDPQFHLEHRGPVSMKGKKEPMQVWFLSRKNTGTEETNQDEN
As to the kind of experiment: Effect on a recombinant guanylate cyclase reporter cell line. The format is cell-based. Particulars: MEC = minimum effective concentration; in some cases mean values for individual determinations. How it is done: B-2. Effect on a Recombinant Guanylate Cyclase Reporter Cell Line
The cellular action of the compounds of the invention is determined using a recombinant guanylate cyclase reporter cell line, as described in F. Wunder et al., Anal. Biochem. 339, 104-112 (2005).
Representative MEC values (MEC=minimum effective concentration) for the compounds of the invention are shown in the table below (in some cases as mean values for individual determinations): […]

The record followed here is patent US20160176880A1, “SUBSTITUTED IMIDAZO[1,2-A]PYRAZINECARBOXAMIDES AND USE THEREOF” (BAYER PHARMA AKTIENGESELLSCHAFT, priority 2013, published 2016).

Counter-ions that a name gives are not always drawn.

As to `Cc1cn2c(C(=O)N[C@H]3CCNC3=O)c(C)nc2c(OCc2c(F)cccc2F)n1` [Example 9, 8-[(2,6-Difluorobenzyl)oxy]-2,6-dimethyl-N-[(3S)-2-oxopyrrolidin-3-yl]imidazo[1,2-a]pyrazine-3-carboxamide], the MEC was 3 µM.

Turning to `Cc1cn2c(C(=O)NC(CCCC(F)(F)F)C(C)(C)O)c(C)nc2c(OCc2c(F)cccc2F)n1` (single isomer, unassigned; ent-8) [Example 6, ent-8[(2,6-Difluorobenzyl)oxy]-2,6-dimethyl-N-(7,7,7-trifluoro-2-hydroxy-2-methylheptan-3-yl)imidazo[1,2-a]pyrazine-3-carboxamide], the MEC worked out at 3 µM.

Turning to `Cc1cn2c(C(=O)NCC(C)(N)CC(C)C)c(C)nc2c(OCc2c(F)cccc2F)n1` (racemic) [Example 5, rac-N-(2-Amino-2,4-dimethylpentyl)-8-[(2,6-difluorobenzyl)oxy]-2,6-dimethylimidazo[1,2-a]pyrazine-3-carboxamide], the MEC was 1 µM.

With `CCCCC(NC(=O)c1c(C)nc2c(OCc3c(F)cccc3F)nc(C)cn12)C(C)(C)O` (single isomer, unassigned; ent-8) [Example 7, ent-8[(2,6-Difluorobenzyl)oxy]-N-(2-hydroxy-2-methylheptan-3-yl)-2,6-dimethylimidazo[1,2-a]pyrazine-3-carboxamide], the MEC stood at 0.3 µM.

`Cc1cn2c(C(=O)NNc3ccc(F)cc3)c(C)nc2c(OCc2c(F)cccc2F)n1` [Example 52, 8-[(2,6-difluorobenzyl)oxy]-N′-(4-fluorophenyl)-2,6-dimethylimidazo[1,2-a]pyrazine-3-carbohydrazide]: the MEC was 0.3 µM.

Take `CCCC(C)(N)CNC(=O)c1c(C)nc2c(OCc3c(F)cccc3F)nc(C)cn12` (single isomer, unassigned; enantiomer b) [Example 39, ent-N-(2-Amino-2-methylpentyl)-8-[(2,6-difluorobenzyl)oxy]-2,6-dimethylimidazo[1,2-a]pyrazine-3-carboxamide (enantiomer B)]: the MEC turned out to be 0.2 µM.

`Cc1cn2c(C(=O)NCC(C)(N)CC(F)F)c(C)nc2c(OCc2c(F)cccc2F)n1` (single isomer, unassigned; enantiomer a) [Example 41, ent-N-(2-Amino-4,4-difluoro-2-methylbutyl)-8-[(2,6-difluorobenzyl)oxy]-2,6-dimethylimidazo[1,2-a]pyrazine-3-carboxamide (enantiomer A)]: the MEC is 0.65 µM.

Regarding `Cc1cn2c(C(=O)Nc3c(C)nn(Cc4ccc(F)cc4)c3C)c(C)nc2c(OCc2c(F)cccc2F)n1` [Example 23, 8-[(2,6-difluorobenzyl)oxy]-N-[1-(4-fluorobenzyl)-3,5-dimethyl-1H-pyrazol-4-yl]-2,6-dimethylimidazo[1,2-a]pyrazine-3-carboxamide], the MEC was found to be 1 µM.

Turning to `COC(=O)[C@H]1CC[C@H](CNC(=O)c2c(C)nc3c(OCc4c(F)cccc4F)nc(C)cn23)CC1` [Example 8, Methyl trans-4-{[({8-[(2,6-difluorobenzyl)oxy]-2,6-dimethylimidazoyl}carbonyl)amino]methyl}cyclohexanecarboxylate], the MEC was found to be 1 µM.

For `Cc1cn2c(C(=O)NOCCO)c(C)nc2c(OCc2c(F)cccc2F)n1` [Example 44, 8-[(2,6-Difluorobenzyl)oxy]-N-(2-hydroxyethoxy)-2,6-dimethylimidazo[1,2-a]pyrazine-3-carboxamide], the MEC is 10 µM.

For the molecule `Cc1nc2c(OCC3CCCCC3)nccn2c1C(=O)NCc1ccc(F)c(F)c1` [Example 47, 8-(Cyclohexylmethoxy)-N-(3,4-difluorobenzyl)-2-methylimidazo[1,2-a]pyrazine-3-carboxamide], the MEC is 1.0 µM.

Consider `Cc1cn2c(C(=O)NC3CC(C)(C)NC(C)(C)C3)c(C)nc2c(OCc2c(F)cccc2F)n1` [Example 16, 8-[(2,6-difluorobenzyl)oxy]-2,6-dimethyl-N-(2,2,6,6-tetramethylpiperidin-4-yl)imidazo[1,2-a]pyrazine-3-carboxamide], for which the MEC was determined as 3 µM.

Regarding `CCCC[C@H](C)NC(=O)c1c(C)nc2c(OCc3c(F)cccc3F)nc(C)cn12` [Example 2, 8-[(2,6-Difluorobenzyl)oxy]-N-[(2S)-hexan-2-yl]-2,6-dimethylimidazo[1,2-a]pyrazine-3-carboxamide], the MEC worked out at 1 µM.

Take `CC[C@](C)(N)CNC(=O)c1c(C)nc2c(OCc3c(F)cccc3F)nc(C)cn12` [Example 1, ent-N-[(2S)-2-Amino-2-methylbutyl]-8-[(2,6-difluorobenzyl)oxy]-2,6-dimethylimidazo[1,2-a]pyrazine-3-carboxamide]: the MEC came out at 0.77 µM.

In the case of `Cc1cn2c(C(=O)NC(C)c3nc(C(F)(F)F)no3)c(C)nc2c(OCc2c(F)cccc2F)n1` (racemic) [Example 26, rac-8-[(2,6-difluorobenzyl)oxy]-2,6-dimethyl-N-{1-[3-(trifluoromethyl)-1,2,4-oxadiazol-5-yl]ethyl}imidazo[1,2-a]pyrazine-3-carboxamide], the MEC was 3 µM.

With `Cc1cn2c(C(=O)NCC(C)(N)CC(F)F)c(C)nc2c(OCc2c(F)cccc2F)n1` (single isomer, unassigned; enantiomer b) [Example 42, ent-N-(2-Amino-4,4-difluoro-2-methylbutyl)-8-[(2,6-difluorobenzyl)oxy]-2,6-dimethylimidazo[1,2-a]pyrazine-3-carboxamide (enantiomer B)], the MEC is 0.3 µM.

With `CCC(CO)(CO)NC(=O)c1c(C)nc2c(OCc3c(F)cccc3F)nc(C)cn12` [Example 35, 8-[(2,6-difluorobenzyl)oxy]-N-[1-hydroxy-2-(hydroxymethyl)butan-2-yl]-2,6-dimethylimidazo[1,2-a]pyrazine-3-carboxamide], the MEC came to 3 µM.

Take `Cc1cn2c(C(=O)Nc3ccnc4ccc(F)cc34)c(C)nc2c(OCc2c(F)cccc2F)n1` [Example 10, 8-[(2,6-Difluorobenzyl)oxy]-N-(6-fluoroquinolin-4-yl)-2,6-dimethylimidazo[1,2-a]pyrazine-3-carboxamide]: the MEC worked out at 0.3 µM.

As for `Cc1cn2c(C(=O)NCC3(O)CC3)c(C)nc2c(OCc2c(F)cccc2F)n1` [Example 32, 8-[(2,6-difluorobenzyl)oxy]-N-[(1-hydroxycyclopropyl)methyl]-2,6-dimethylimidazo[1,2-a]pyrazine-3-carboxamide], the MEC worked out at 1 µM.

Take `Cc1cn2c(C(=O)NCC3CCC(C#N)CC3)c(C)nc2c(OCc2c(F)cccc2F)n1` (mixture of isomers) [Example 50, N-[(4-cyanocyclohexyl)methyl]-8-[(2,6-difluorobenzyl)oxy]-2,6-dimethylimidazo[1,2-a]pyrazine-3-carboxamide trifluoroacetate (cis/trans mixture)]: the MEC stood at 1.0 µM.

Consider `Cc1cn2c(C(=O)NCC(C)(N)CF)c(C)nc2c(OCc2c(F)cccc2F)n1` (single isomer, unassigned; enantiomer b) [Example 37, ent-N-(2-Amino-3-fluoro-2-methylpropyl)-8-[(2,6-difluorobenzyl)oxy]-2,6-dimethylimidazo[1,2-a]pyrazine-3-carboxamide (enantiomer B)], for which the MEC stood at 0.3 µM.

Turning to `Cc1cn2c(C(=O)NCc3ccc(Cl)nc3)c(C)nc2c(OCc2c(F)cccc2F)n1` [Example 28, N-[(6-chloropyridin-3-yl)methyl]-8-[(2,6-difluorobenzyl)oxy]-2,6-dimethylimidazo[1,2-a]pyrazine-3-carboxamide], the MEC was determined as 1 µM.

`Cc1cn2c(C(=O)NC(CCC(F)(F)C(F)(F)F)C(C)(C)O)c(C)nc2c(OCc2c(F)cccc2F)n1` (single isomer, unassigned; ent-8) [Example 29, ent-8-[(2,6-difluorobenzyl)oxy]-2,6-dimethyl-N-(6,6,7,7,7-pentafluoro-2-hydroxy-2-methylheptan-3-yl)imidazo[1,2-a]pyrazine-3-carboxamide]: the MEC turned out to be 1 µM.
